From US11236055B2 (Venenum Biodesign, LLC, priority 2016, dated 2022)
Values belong to the compound of their own block, whether it stands above or below them.

Columns and labels:
[1] = molecular target: T1, human TGR5 receptor (Homo sapiens, UniProt Q8TDU6); assay: Human TGR5 cAMP production assay; type: cell-based; settings: human TGR5, luminescent cAMP assay; coded A-D; read-out: Human TGR5 Lum. cAMP Activity (EC50)
T1 construct: host or cells: CHO-K1 (hTGR5-CHO cells)
T1 sequence (Q8TDU6 1-330): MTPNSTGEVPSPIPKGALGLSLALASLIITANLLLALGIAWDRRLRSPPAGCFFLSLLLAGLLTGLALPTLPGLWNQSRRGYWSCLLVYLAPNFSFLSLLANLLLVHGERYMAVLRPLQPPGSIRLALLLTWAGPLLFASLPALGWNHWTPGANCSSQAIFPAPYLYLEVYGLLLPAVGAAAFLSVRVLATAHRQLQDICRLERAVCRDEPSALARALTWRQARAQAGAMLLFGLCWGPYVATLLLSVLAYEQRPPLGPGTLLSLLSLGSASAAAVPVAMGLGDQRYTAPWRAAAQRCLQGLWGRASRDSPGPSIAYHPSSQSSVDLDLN
In short: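 CHO-K1 cells stably expressing human TGR5, with IBMX and cAMP antibody, were exposed to half-log serially diluted compound for 1 h at room temperature. cAMP measured by enzyme-fragment complementation luminescence (XS+ kit) after overnight incubation; EC50 values reported.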

[2] = molecular target: T2, mouse TGR5 receptor (Mus musculus, UniProt Q80SS6); assay: Mouse TGR5 cAMP production assay (luminescent, DiscoveRx cAMP XS+); type: cell-based; settings: HEK293-EBNA cells overexpressing mouse TGR5, luminescent cAMP XS+; coded A-D; read-out: Mouse TGR5 Lum. cAMP Activity (EC50)
T2 construct: expressed in transfected cells; host or cells: HEK293-EBNA (293 c18, ATCC CRL10852), Hygromycin B selection
T2 sequence (Q80SS6 1-329): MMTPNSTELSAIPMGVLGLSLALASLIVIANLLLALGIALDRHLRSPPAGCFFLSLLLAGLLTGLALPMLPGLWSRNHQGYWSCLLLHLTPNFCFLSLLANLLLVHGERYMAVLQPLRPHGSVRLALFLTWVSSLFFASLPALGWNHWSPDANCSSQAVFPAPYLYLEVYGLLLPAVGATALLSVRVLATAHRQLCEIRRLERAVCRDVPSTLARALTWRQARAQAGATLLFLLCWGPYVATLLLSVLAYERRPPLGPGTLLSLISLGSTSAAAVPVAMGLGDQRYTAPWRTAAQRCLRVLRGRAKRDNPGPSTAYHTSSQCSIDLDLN
Excerpt: Mouse TGR5 cAMP Production Assay
We evaluated compounds of the present invention for their ability to induce cAMP production in HEK-EBNA cells overexpressing the mouse TGR5 receptor. Human embryonic kidney cells (HEK293-EBNA) stably expressing mouse TGR5 receptor were established using the following procedure. Specifically, a commercially-obtained gene encoding mouse TGR5 (accession number BC116914) from Thermo Scientific (Waltham, Mass.) was cloned into an episomal expression vector. The resulting expression plasmid was then transfected into 293 c18 (ATCC® CRL10852™) cells, which express the Epstein-Barr virus nuclear antigen EBNA1 and can support the replication of episomal vectors. Selection for the plasmid was maintained with Hygromycin B. Cells were cultured and maintained in DMEM (Sigma; cat #6429) supplemented with 10% Fetal Bovine Serum, 1% penicillin/streptomycin, 2 mM L-alanine L-glutamine (GlutaMax), and 250 μg/mL Hygromycin.
Two cAMP production assays were developed.
1. Luminescent cAMP Production Assay
In this first cAMP production assay, the cAMP production was measured using DiscoveRx's cAMP XS+ kit following the manufacturer's recommended protocol.
Briefly, HEK293-EBNA cells stably overexpressing mouse TGR5 were harvested using non-enzymatic cell dissociation buffer (Sigma-Aldrich, St. Louis, Mo.), spun down, then resuspended in serum-free DMEM with 500 μM IBMX at a density of 1.25×10^6 cells/mL. 500 μL of cAMP antibody solution was added to […] of cell suspension and incubated at room temperature for 20 min.
Test compounds were serially diluted (half-log dilutions) in DMSO and then further diluted 1:50 in PBS, 10 mM HEPES buffer. 2 μL of serially diluted compound was added to a 384-well low volume plate (Greiner cat #784075) and centrifuged briefly. 2 μL of the cell/cAMP antibody mixture was then added to each compound-containing well and allowed to incubate at room temperature for one (1) hour. Following incubation, the XS+ kits' ED/Lysis/CL Substrate Working Solution was prepared following the manufacturer's recommended protocol and 4 μL was added to each well of the plate. The plate was then incubated for one (1) hour at room temperature. Following incubation, 4 μL of (Enzyme Acceptor) EA reagent was added to the plate and allowed to incubate overnight at room temperature. Luminescent signal was then detected using the Viewlux instrument (Perkin-Elmer, Waltham, Mass.).
In Table 33, EC50 values for both human and mouse cells were determined according to the TGR5 cAMP assays described above.

Compound: Cc1noc(C)c1-c1cccc(CNS(=O)(=O)c2cc(C(F)(F)F)cc(C(F)(F)F)c2)c1 [Compound 2AH]
- EC50 [1]: 1000 to 30000 nM
- EC50 [2]: > 30000 nM

Compound: O=S(=O)(NCc1cccc(-c2ccncc2)c1)c1cccc(Cl)c1 [Compound 2AJ]
- EC50 [1]: 1000 to 30000 nM
- EC50 [2]: 1000 to 30000 nM

Compound: O=S(=O)(NCc1cccc(-c2ccncc2)c1)c1cccc(F)c1 [Compound 2AK]
- EC50 [1]: 1000 to 30000 nM
- EC50 [2]: > 30000 nM

Compound: COc1cccc(S(=O)(=O)NCc2cccc(-c3ccncc3)c2)c1 [Compound 2AL]
- EC50 [1]: 1000 to 30000 nM
- EC50 [2]: > 30000 nM

Compound: O=S(=O)(NCc1cccc(-c2ccncc2)c1)c1ccccc1C(F)(F)F [Compound 2AM]
- EC50 [1]: 1000 to 30000 nM
- EC50 [2]: 1000 to 30000 nM

Compound: Cc1ccccc1S(=O)(=O)NCc1cccc(-c2ccncc2)c1 [Compound 2AP]
- EC50 [1]: 1000 to 30000 nM
- EC50 [2]: > 30000 nM

Compound: O=S(=O)(NCc1cccc(-c2ccncc2)c1)c1ccccc1Cl [Compound 2AR]
- EC50 [1]: 1000 to 30000 nM
- EC50 [2]: > 30000 nM

Compound: O=S(=O)(NCc1cccc(-c2ccncc2)c1)c1ccccc1F [Compound 2AS]
- EC50 [1]: 1000 to 30000 nM
- EC50 [2]: > 30000 nM

Compound: COc1cnccc1-c1cccc(C(C)(C)NS(=O)(=O)c2cc(C(F)(F)F)ccc2OC)c1 [Compound 2AW]
- EC50 [1]: 1000 to 30000 nM
- EC50 [2]: 1000 to 30000 nM

Compound: COc1cnccc1-c1cccc(C(C)(C)NS(=O)(=O)c2ccccc2Cl)c1 [Compound 2AX]
- EC50 [1]: 100 to 999 nM
- EC50 [2]: 100 to 999 nM

Compound: COc1cnccc1-c1cccc(C(C)(C)NS(=O)(=O)c2cccc(C)c2)c1 [Compound 2AZ]
- EC50 [1]: 100 to 999 nM
- EC50 [2]: 100 to 999 nM

Compound: COc1cnccc1-c1cccc(C(C)(C)NS(=O)(=O)c2cc(Br)cc(C(F)(F)F)c2)c1 [Compound 2BB]
- EC50 [1]: 100 to 999 nM
- EC50 [2]: 100 to 999 nM

Compound: COc1cnccc1-c1cccc([C@H](C)NS(=O)(=O)c2ccccc2[N+](=O)[O-])c1 [Compound 2BP]
- EC50 [1]: < 100 nM
- EC50 [2]: 100 to 999 nM

Compound: C[C@H](NS(=O)(=O)c1cccc(Br)c1)c1cccc(-c2ccncc2Cl)c1 [Compound 2BR]
- EC50 [1]: 100 to 999 nM
- EC50 [2]: 1000 to 30000 nM

Compound: C[C@H](NS(=O)(=O)c1ccccc1C(F)(F)F)c1cccc(-c2ccncc2Cl)c1 [Compound 2BT]
- EC50 [1]: < 100 nM
- EC50 [2]: 100 to 999 nM

Compound: Cc1cncc(C)c1-c1cccc(C(C)(C)NS(=O)(=O)c2cccc(C(F)(F)F)c2)c1 [Compound 5AD, N-(2-(3-(3,5-dimethylpyridin-4-yl)phenyl)propan-2-yl)-3-(trifluoromethyl)benzenesulfonamide]
- EC50 [1]: 1000 to 30000 nM
- EC50 [2]: 1000 to 30000 nM

Compound: Cc1cnccc1-c1cccc([C@@H](C)NS(=O)(=O)c2cccc(C(F)(F)F)c2)c1 [Compound 5AH, (R)-N-(1-(3-(3-methylpyridin-4-yl)phenyl)ethyl)-3-(trifluoromethyl)benzenesulfonamide]
- EC50 [1]: < 100 nM
- EC50 [2]: 100 to 999 nM

Compound: COCCOc1cnccc1-c1cccc(C(C)(C)NS(=O)(=O)c2cccc(C(F)(F)F)c2)c1 [Compound 8, N-(2-(3-(3-(2-methoxyethoxy)pyridin-4-yl)phenyl)propan-2-yl)-3-(trifluoromethyl)benzenesulfonamide]
- EC50 [1]: 100 to 999 nM
- EC50 [2]: 1000 to 30000 nM

Compound: CC(C)Oc1cnccc1-c1cccc(C(C)(C)NS(=O)(=O)c2cccc(C(F)(F)F)c2)c1 [Compound 8AA, N-(2-(3-(3-isopropoxypyridin-4-yl)phenyl)propan-2-yl)-3-(trifluoromethyl)benzenesulfonamide]
- EC50 [1]: 100 to 999 nM
- EC50 [2]: 100 to 999 nM

Compound: CCOc1cnccc1-c1cccc(C(C)(C)NS(=O)(=O)c2cccc(C(F)(F)F)c2)c1 [Compound 8AB, N-(2-(3-(3-ethoxypyridin-4-yl)phenyl)propan-2-yl)-3-(trifluoromethyl)benzenesulfonamide]
- EC50 [1]: < 100 nM
- EC50 [2]: 100 to 999 nM

Other lines, results leading:

- EC50 [1]: 1000 to 30000 nM
- EC50 [2]: > 30000 nM
Compound: Cc1noc(C)c1-c1cccc(CNS(=O)(=O)c2cc(F)cc(C(F)(F)F)c2)c1 [Compound 2AG]

- EC50 [1]: 1000 to 30000 nM
- EC50 [2]: 1000 to 30000 nM
Compound: Cc1cccc(S(=O)(=O)NCc2cccc(-c3ccncc3)c2)c1 [Compound 2AI]

- EC50 [1]: 1000 to 30000 nM
- EC50 [2]: 1000 to 30000 nM
Compound: O=[N+]([O-])c1cccc(S(=O)(=O)NCc2cccc(-c3ccncc3)c2)c1 [Compound 2AN]

- EC50 [1]: 1000 to 30000 nM
- EC50 [2]: 1000 to 30000 nM
Compound: O=[N+]([O-])c1ccccc1S(=O)(=O)NCc1cccc(-c2ccncc2)c1 [Compound 2AO]

- EC50 [1]: 100 to 999 nM
- EC50 [2]: > 30000 nM
Compound: O=S(=O)(NCc1cccc(-c2ccncc2)c1)c1cccc(Br)c1 [Compound 2AQ]

- EC50 [1]: 100 to 999 nM
- EC50 [2]: 1000 to 30000 nM
Compound: COc1cnccc1-c1cccc(C(C)(C)NS(=O)(=O)c2cccc(Br)c2)c1 [Compound 2AT]

- EC50 [1]: 100 to 999 nM
- EC50 [2]: 100 to 999 nM
Compound: COc1cnccc1-c1cccc(C(C)(C)NS(=O)(=O)c2cccc(Cl)c2)c1 [Compound 2AY]

- EC50 [1]: 100 to 999 nM
- EC50 [2]: 1000 to 30000 nM
Compound: COc1cnccc1-c1cccc([C@H](C)NS(=O)(=O)c2cccc(Br)c2)c1 [Compound 2BO]

- EC50 [1]: 100 to 999 nM
- EC50 [2]: 100 to 999 nM
Compound: C[C@H](NS(=O)(=O)c1ccccc1[N+](=O)[O-])c1cccc(-c2ccncc2Cl)c1 [Compound 2BS]

- EC50 [1]: < 100 nM
- EC50 [2]: 100 to 999 nM
Compound: CCc1cnccc1-c1cccc(C(C)(C)NS(=O)(=O)c2cccc(C(F)(F)F)c2)c1 [Compound 5AB, N-(2-(3-(3-ethylpyridin-4-yl)phenyl)propan-2-yl)-3-(trifluoromethyl)benzenesulfonamide]

- EC50 [1]: < 100 nM
- EC50 [2]: 100 to 999 nM
Compound: Cc1cnccc1-c1cccc([C@H](C)NS(=O)(=O)c2cccc(C(F)(F)F)c2)c1 [Compound 5AG, (S)-N-(1-(3-(3-methylpyridin-4-yl)phenyl)ethyl)-3-(trifluoromethyl)benzenesulfonamide]

- EC50 [1]: < 100 nM
- EC50 [2]: 100 to 999 nM
Compound: Cc1cnccc1-c1cccc(C(C)(C)NS(=O)(=O)c2ccccc2C(F)(F)F)c1 [Compound 5AI, N-(2-(3-(3-methylpyridin-4-yl)phenyl)propan-2-yl)-2-(trifluoromethyl)benzenesulfonamide]
